We go through two compounds from US20150183738A1, “3-N-BUTYL-1-ISOINDOLINONE AND USE THEREOF FOR PREVENTING OR TREATING CEREBRAL INFARCTION” (SUN YAT-SEN UNIVERSITY, priority 2012, published 2015).

“Also recorded” adds a separate entry of the source.

Data set [1] concerns middle cerebral artery occlusion (MCAO) model in rats. Put plainly: Influence on cerebral infarct area/volume in MCAO models of rats (TTC staining, image J). The class given is in vivo, Male SD rats. Conditions: for average infarct area: 30 mg/kg intraperitoneal injection 15 min after ischemia, 2 hrs of cerebral infarction and 24 hrs of reperfusion, TTC staining. Here is the method:
The middle cerebral artery occlusion (MCAO) model in rats is constructed to observe the anti-cerebral ischemia of 3-n-butyl-1-isoindolinone. The MCAO model is divided into three groups: 1) a negative control group, i. e., an vegetable oil, 3 mL/kg; 2) 3-n-butyl-1-isoindolinone group, 30 mg/kg; 3) a positive control group, i. e., 3-n-butylphthalide, 30 mg/kg. All the three groups are administered via intraperitoneal injection. Male SD rats having a weight of 250 g are selected and administered 15 min after the ischemia. After 2 hrs of cerebral infarction and 24 hrs of reperfusion, brain slices are prepared and conducted with TTC staining. Software image J is used to process staining results, calculate infarct areas, and compared with the results among different groups. It is known from the results that an average infarct area of the blank group is 24.430%, the average infarct area of the 3-n-butyl-1-isoindolinone group is 14.365%, and the average infarct area of the butylphthalide group is 14.402%. […] Male SD rats having a weight of between 250 and 270 g are selected. The Male SD rats are cultivated at a room temperature of 25° C. and are forbidden from feeding food except for water 12 hrs before the operation. The MCAO models are constructed in accordance with longa method or the like. 10% chloral hydrate is used to anesthetize the rats by intraperitoneal injection with a dose of 350 mg/kg. The rat is then upwardly fixed on a rat plate in a supine position and illuminated by an incandescent lamp for maintaining a body temperature thereof at 37±0.5° C. Rat hairs at the middle position of the neck are sheared, and the skin at such position is incised after disinfection. The common carotid artery (CCA), external carotid artery (ECA), and internal carotid artery (ICA) of the right side are carefully separated. The ECA is cut, and a cut end is straightened and aligned with the ICA, and a thread is then inserted therefrom. The thread is inserted for a depth of approximately 19.0±0.5 mm. After 2 hrs, a part of the thread is pulled out to realize reperfusion. The rat after suture ligation is then put back to the rat cage. After 24 hrs of reperfusion, brain slices are prepared for staining. The rats are divided into three groups with 10 in each group: 1) a blank control group, i. e., an vegetable oil, 3 mL/kg; 2) 3-n-butyl-1-isoindolinone group, 30 mg/kg; 3) a positive control group, i. e., 3-n-butylphthalide, 30 mg/kg. All the three groups are administered with drugs via intraperitoneal injection 15 min after modeling. After 24 hrs of reperfusion, brains are collected from killed rats and placed in Petri dishes. The brain tissues are quickly collected and placed in a refrigerator at a temperature of −20° C. for 20 min and taken out. The olfactory bulb, the cerebellum, and the lower brainstem are removed, and the remaining brain is then cut for five times with an interval of 2 mm, whereby six consecutive coronal brain slices are formed. 2% TTC dye solution is added to the Petri dishes to submerge the brain slice by the solution. The Petri dishes are placed at the temperature of 37° C. and incubated in the absence of light for between 25 and 30 min during which the brain slices are turned over once every 5 min. After TTC staining of the brain slices, a normal tissue thereof presents red and an ischemic region presents white. When the TTC staining is finished, the TTC dye solution is removed out of the Petri dishes by syringes. Formalin solution with an amount enabling to submerge the brain slices is then added, and the Petri dishes are placed in the dark. After 24 hrs, solidified brain slices are taken out and arranged in order in a blue background to take pictures. […]

Data set [2] shares this test system. The data set is described as follows: Neurobehavioral assessment (Zea Longa) in MCAO models of rats. Conditions: score after 24 hrs of reperfusion; for alleviation of the neurobehavior compared with the blank control group (ANOVA): 30 mg/kg i.p. The class given is in vivo, Male SD rats. As to the method:
Male SD rats having a weight of between 250 and 270 g are selected. The Male SD rats are cultivated at a room temperature of 25° C. and are forbidden from feeding food except for water 12 hrs before the operation. The MCAO models are constructed in accordance with longa method or the like. 10% chloral hydrate is used to anesthetize the rats by intraperitoneal injection with a dose of 350 mg/kg. The rat is then upwardly fixed on a rat plate in a supine position and illuminated by an incandescent lamp for maintaining a body temperature thereof at 37±0.5° C. Rat hairs at the middle position of the neck are sheared, and the skin at such position is incised after disinfection. The common carotid artery (CCA), external carotid artery (ECA), and internal carotid artery (ICA) of the right side are carefully separated. The ECA is cut, and a cut end is straightened and aligned with the ICA, and a thread is then inserted therefrom. The thread is inserted for a depth of approximately 19.0±0.5 mm. After 2 hrs, a part of the thread is pulled out to realize reperfusion. The rat after suture ligation is then put back to the rat cage. After 24 hrs of reperfusion, brain slices are prepared for staining.
The rats are divided into three groups with 10 in each group: 1) a blank control group, i. e., an vegetable oil, 3 mL/kg; 2) 3-n-butyl-1-isoindolinone group, 30 mg/kg; 3) a positive control group, i. e., 3-n-butylphthalide, 30 mg/kg. All the three groups are administered with drugs via intraperitoneal injection 15 min after modeling.
According to Zea Longa assessment, ethology observation is conducted after 2 hrs of modeling and 24 hrs of reperfusion and before killing the rats. The tail of the rat is seized to lift the rat about 1 foot off the ground to observe the condition of the left forelimb. […]
After 24 hrs of reperfusion of the MCAO models of the rats, the neurobehavioral assessment is conducted on the rats again, and the results are recorded.

The conditions of data set [3]: background statement; oily liquid; cited from earlier work.
[4] abbreviates: 30 mg/kg i.p., 2 hrs MCAO, 24 hrs reperfusion.

For the compound `CCCCC1NC(=O)c2ccccc21` (stereo not shown) [3-n-butyl-1-isoindolinone], in data set [1] (setting [4]), the “infarct volume reduced compared with the solvent control group” value is listed as 41.199% and the “reduced infarct area compared with the blank control group (one-factor ANOVA)” value is “significant difference (P<0.001)”. Further, the average infarct area in data set [1] amounted to 14.365%. For the same compound, the “reduced infarct area, difference compared with butylphthalide (one-factor ANOVA)” value in data set [1] (both 30 mg/kg i.p., 2 hrs MCAO, 24 hrs reperfusion) is listed as “no significant statistical difference; also recorded: no statistical significance (P=0.989)”. Further, the “alleviation of the neurobehavior compared with the blank control group (ANOVA)” value in data set [2] is listed as “significant difference (P=0.003<0.01)”. Besides, in data set [2] (both 30 mg/kg i.p.), the “alleviation of the neurobehavior compared with the butylphthalide group (ANOVA)” value is “no significant difference (P=0.384>0.05)”.

Turning to `CCCCC1OC(=O)c2ccccc21` (stereo not shown) [butylphthalide, 3-n-butylphthalide, reference compound], the “reduced infarct area compared with the blank control group (one-factor ANOVA)” value in data set [1] (setting [4]) is reported as “significant difference (P<0.01)”. In data set [1], this compound gave an average infarct area of 14.402%. Further, the “alleviation of the neurobehavior compared with the blank control group (ANOVA)” value in data set [2] was “significant difference”. Also, in data set [3], the water solubility result was “water insoluble”.
